In US8158636B2, “Compounds and methods for kinase modulation, and indications therefor” (Plexxikon Inc., priority 2008, dated 2012):

Key:
Format in all cases: biochemical
Kdr = Kdr (Homo sapiens, UniProt P35968); test: Kinase activity assay, Kdr; conditions: Table 1i; read-out: activity toward kinase Kdr, IC50
Source text: (§1) Assays for the activity of kinases, including, but not limited to, Fms, Kit, B-Raf, B-Raf V600E, c-Raf-1, and TrkA are known in the art, for example as described in US Patent Publication Number US20070032519 and U.S. patent application Ser. No. 11/473,347 (see also, PCT publication WO2007002433), the disclosures of which are hereby incorporated by reference with respect to such assays.

Kit = Kit (Homo sapiens, UniProt P10721); test: Kinase activity assay, Kit; conditions: Table 1j; read-out: activity toward kinase Kit, IC50
Source text: as §1

Fms = Fms (Homo sapiens, UniProt P07333); test: Kinase activity assay, Fms; conditions: Table 1h; read-out: activity toward kinase Fms, IC50
Source text: as §1

Kit, sequence (P10721 26-976): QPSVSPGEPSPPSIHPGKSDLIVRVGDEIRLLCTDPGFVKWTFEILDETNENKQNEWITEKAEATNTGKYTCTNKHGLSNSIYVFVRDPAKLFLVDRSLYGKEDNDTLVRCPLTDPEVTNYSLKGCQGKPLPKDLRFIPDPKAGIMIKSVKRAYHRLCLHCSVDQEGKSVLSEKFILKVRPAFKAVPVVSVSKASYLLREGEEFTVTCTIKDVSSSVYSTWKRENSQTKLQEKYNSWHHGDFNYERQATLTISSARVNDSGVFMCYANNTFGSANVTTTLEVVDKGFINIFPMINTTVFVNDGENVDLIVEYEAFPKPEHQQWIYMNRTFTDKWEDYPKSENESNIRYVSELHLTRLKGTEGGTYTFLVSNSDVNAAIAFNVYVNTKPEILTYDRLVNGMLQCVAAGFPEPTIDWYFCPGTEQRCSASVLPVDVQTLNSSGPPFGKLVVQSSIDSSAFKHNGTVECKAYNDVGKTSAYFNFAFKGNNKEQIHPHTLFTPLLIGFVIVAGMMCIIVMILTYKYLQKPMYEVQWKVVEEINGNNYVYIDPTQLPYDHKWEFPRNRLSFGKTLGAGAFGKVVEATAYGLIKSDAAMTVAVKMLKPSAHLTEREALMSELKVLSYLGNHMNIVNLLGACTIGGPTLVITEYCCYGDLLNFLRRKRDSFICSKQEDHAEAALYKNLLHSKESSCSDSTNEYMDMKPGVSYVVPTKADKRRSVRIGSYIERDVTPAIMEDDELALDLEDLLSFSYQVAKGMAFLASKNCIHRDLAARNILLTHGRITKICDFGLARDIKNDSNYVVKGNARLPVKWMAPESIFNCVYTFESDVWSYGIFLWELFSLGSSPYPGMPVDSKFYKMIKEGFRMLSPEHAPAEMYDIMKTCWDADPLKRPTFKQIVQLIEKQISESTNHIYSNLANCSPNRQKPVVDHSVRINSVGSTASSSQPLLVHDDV
Kdr, sequence (P35968 20-1356): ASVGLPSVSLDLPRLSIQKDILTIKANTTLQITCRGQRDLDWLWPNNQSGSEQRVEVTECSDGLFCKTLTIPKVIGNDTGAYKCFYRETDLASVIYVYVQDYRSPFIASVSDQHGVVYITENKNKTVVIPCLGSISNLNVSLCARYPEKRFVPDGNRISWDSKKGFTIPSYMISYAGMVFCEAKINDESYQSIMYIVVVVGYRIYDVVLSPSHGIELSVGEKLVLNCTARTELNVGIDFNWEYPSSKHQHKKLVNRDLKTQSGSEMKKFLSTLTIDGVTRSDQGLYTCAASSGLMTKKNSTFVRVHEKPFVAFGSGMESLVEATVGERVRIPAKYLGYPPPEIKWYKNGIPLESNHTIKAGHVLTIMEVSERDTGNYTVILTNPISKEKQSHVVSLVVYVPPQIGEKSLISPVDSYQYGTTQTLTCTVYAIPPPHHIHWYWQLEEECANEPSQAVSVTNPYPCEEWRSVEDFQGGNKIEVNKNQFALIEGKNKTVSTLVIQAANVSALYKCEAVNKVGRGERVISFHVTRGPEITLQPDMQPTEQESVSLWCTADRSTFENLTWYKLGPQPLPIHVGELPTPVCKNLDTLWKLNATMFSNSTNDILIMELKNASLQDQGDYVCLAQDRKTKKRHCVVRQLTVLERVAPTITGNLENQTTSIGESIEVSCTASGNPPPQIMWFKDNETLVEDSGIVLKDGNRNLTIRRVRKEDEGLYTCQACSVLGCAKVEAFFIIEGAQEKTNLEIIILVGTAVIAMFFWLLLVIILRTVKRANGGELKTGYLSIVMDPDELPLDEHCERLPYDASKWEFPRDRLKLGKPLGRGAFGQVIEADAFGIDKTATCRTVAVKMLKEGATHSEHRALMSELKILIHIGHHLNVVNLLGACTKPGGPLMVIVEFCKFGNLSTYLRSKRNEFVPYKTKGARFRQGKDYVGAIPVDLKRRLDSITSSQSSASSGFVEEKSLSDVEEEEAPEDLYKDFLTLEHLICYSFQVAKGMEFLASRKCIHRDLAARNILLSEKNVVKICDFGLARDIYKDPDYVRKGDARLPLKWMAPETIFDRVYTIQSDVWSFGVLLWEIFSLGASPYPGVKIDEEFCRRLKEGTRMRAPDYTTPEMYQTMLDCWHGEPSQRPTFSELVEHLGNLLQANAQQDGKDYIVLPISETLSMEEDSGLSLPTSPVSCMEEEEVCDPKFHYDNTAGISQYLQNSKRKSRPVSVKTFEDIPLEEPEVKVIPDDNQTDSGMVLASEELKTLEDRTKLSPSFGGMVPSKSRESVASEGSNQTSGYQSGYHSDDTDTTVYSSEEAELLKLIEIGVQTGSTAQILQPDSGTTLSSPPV
Fms, sequence (P07333 20-972): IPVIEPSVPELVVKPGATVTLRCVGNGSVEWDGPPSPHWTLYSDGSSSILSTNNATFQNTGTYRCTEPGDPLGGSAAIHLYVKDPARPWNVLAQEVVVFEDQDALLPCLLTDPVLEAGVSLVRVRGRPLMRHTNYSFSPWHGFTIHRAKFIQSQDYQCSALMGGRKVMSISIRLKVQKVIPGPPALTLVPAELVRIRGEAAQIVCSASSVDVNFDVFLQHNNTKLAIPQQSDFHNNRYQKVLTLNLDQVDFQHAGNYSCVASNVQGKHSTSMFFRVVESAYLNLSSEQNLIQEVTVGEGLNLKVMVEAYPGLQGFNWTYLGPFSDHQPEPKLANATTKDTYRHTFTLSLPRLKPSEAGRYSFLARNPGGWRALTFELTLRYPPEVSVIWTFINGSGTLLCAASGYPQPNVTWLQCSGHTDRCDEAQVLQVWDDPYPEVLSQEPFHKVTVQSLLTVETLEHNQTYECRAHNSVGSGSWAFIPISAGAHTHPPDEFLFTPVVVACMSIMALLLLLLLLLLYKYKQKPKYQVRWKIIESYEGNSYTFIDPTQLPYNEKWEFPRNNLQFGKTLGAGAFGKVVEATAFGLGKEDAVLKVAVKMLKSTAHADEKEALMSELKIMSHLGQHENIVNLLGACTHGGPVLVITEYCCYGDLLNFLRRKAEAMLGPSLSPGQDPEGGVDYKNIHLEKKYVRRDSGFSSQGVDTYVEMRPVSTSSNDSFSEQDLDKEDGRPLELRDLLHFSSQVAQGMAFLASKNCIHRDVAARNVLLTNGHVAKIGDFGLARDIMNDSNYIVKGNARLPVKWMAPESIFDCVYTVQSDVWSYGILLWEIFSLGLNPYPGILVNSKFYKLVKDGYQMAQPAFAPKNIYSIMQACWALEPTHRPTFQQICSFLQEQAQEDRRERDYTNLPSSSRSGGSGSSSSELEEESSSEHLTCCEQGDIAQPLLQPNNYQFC

Row | Structure (SMILES) | IC50 (Kdr) [µM] | IC50 (Kit) [µM] | IC50 (Fms) [µM]
1 | COc1ccc(CNc2ncc(Cc3c[nH]c4ncncc34)cc2C)cn1 [P-0012, (6-Methoxy-pyridin-3-ylmethyl)-[3-methyl-5-(7H-pyrrolo[2,3-d]pyrimidin-5-ylmethyl)-pyridin-2-yl]-amine] | ≤ 10 | ≤ 10 | ≤ 10
2 | COc1ccc(CNc2ncc(Cc3c[nH]c4ncncc34)cn2)cn1 [P-0015, (6-Methoxy-pyridin-3-ylmethyl)-[5-(7H-pyrrolo[2,3-d]pyrimidin-5-ylmethyl)-pyrimidin-2-yl]-amine] | ≤ 10 | ≤ 10 | ≤ 10
3 | COc1ccc(CNc2ncc(Cc3c[nH]c4ncncc34)cc2F)cn1 [P-0017, [3-Fluoro-5-(7H-pyrrolo[2,3-d]pyrimidin-5-ylmethyl)-pyridin-2-yl]-(6-methoxy-pyridin-3-ylmethyl)-amine] | ≤ 10 | ≤ 10 | ≤ 10
4 | Fc1nc(NCc2cnccc2C(F)(F)F)ccc1Cc1c[nH]c2ncncc12 [P-0018, [6-Fluoro-5-(7H-pyrrolo[2,3-d]pyrimidin-5-ylmethyl)-pyridin-2-yl]-(4-trifluoromethyl-pyridin-3-ylmethyl)-amine] | ≤ 10 | ≤ 10 | ≤ 10
5 | COc1ccc(CNc2ccc(C(=O)c3c[nH]c4ncncc34)c(C)n2)cn1 [P-0019, {6-[(6-Methoxy-pyridin-3-ylmethyl)-amino]-2-methyl-pyridin-3-yl}-(7H-pyrrolo[2,3-d]pyrimidin-5-yl)-methanone] | – | – | ≤ 10
6 | Cc1cc(CNc2ccc(Cc3c[nH]c4ncncc34)c(F)n2)ccn1 [P-0020, [6-Fluoro-5-(7H-pyrrolo[2,3-d]pyrimidin-5-ylmethyl)-pyridin-2-yl]-(2-methyl-pyridin-4-ylmethyl)-amine] | ≤ 10 | – | ≤ 10
7 | COc1cc(CNc2ccc(Cc3c[nH]c4ncncc34)c(F)n2)ccn1 [P-0023, [6-Fluoro-5-(7H-pyrrolo[2,3-d]pyrimidin-5-ylmethyl)-pyridin-2-yl]-(2-methoxy-pyridin-4-ylmethyl)-amine] | ≤ 10 | ≤ 10 | ≤ 10
8 | COc1cc(CNc2ncc(Cc3c[nH]c4ncncc34)cn2)c(F)cn1 [P-0025, (5-Fluoro-2-methoxy-pyridin-4-ylmethyl)-[5-(7H-pyrrolo[2,3-d]pyrimidin-5-ylmethyl)-pyrimidin-2-yl]-amine] | ≤ 10 | – | ≤ 10
9 | COc1ncccc1CNc1ccc(Cc2c[nH]c3ncncc23)c(F)n1 [P-0026, [6-Fluoro-5-(7H-pyrrolo[2,3-d]pyrimidin-5-ylmethyl)-pyridin-2-yl]-(2-methoxy-pyridin-3-ylmethyl)-amine] | ≤ 10 | ≤ 10 | ≤ 10
10 | Fc1nc(NCc2ccc(Cl)cn2)ccc1Cc1c[nH]c2ncncc12 [P-0027, (5-Chloro-pyridin-2-ylmethyl)-[6-fluoro-5-(7H-pyrrolo[2,3-d]pyrimidin-5-ylmethyl)-pyridin-2-yl]-amine] | ≤ 10 | ≤ 10 | ≤ 10
11 | c1ccc(CNc2ncc(Cc3c[nH]c4ncncc34)cn2)nc1 [P-0028, Pyridin-2-ylmethyl-[5-(7H-pyrrolo[2,3-d]pyrimidin-5-ylmethyl)-pyrimidin-2-yl]-amine] | – | – | ≤ 10
12 | Clc1ccc(CNc2ncc(Cc3c[nH]c4ncncc34)cn2)cn1 [P-0029, (6-Chloro-pyridin-3-ylmethyl)-[5-(7H-pyrrolo[2,3-d]pyrimidin-5-ylmethyl)-pyrimidin-2-yl]-amine] | ≤ 10 | ≤ 10 | ≤ 10
13 | FC(F)(F)c1ccc(CNc2ncc(Cc3c[nH]c4ncncc34)cn2)cn1 [P-0030, [5-(7H-Pyrrolo[2,3-d]pyrimidin-5-ylmethyl)-pyrimidin-2-yl]-(6-trifluoromethyl-pyridin-3-ylmethyl)-amine] | ≤ 10 | ≤ 10 | ≤ 10
14 | c1cc(CNc2ncc(Cc3c[nH]c4ncncc34)cn2)nc(N2CCOCC2)c1 [P-0031, (6-Morpholin-4-yl-pyridin-2-ylmethyl)-[5-(7H-pyrrolo[2,3-d]pyrimidin-5-ylmethyl)-pyrimidin-2-yl]-amine] | ≤ 10 | ≤ 10 | ≤ 10
15 | c1cc(CNc2ncc(Cc3c[nH]c4ncncc34)cn2)nc(N2CCCC2)c1 [P-0032, (6-Pyrrolidin-1-yl-pyridin-2-ylmethyl)-[5-(7H-pyrrolo[2,3-d]pyrimidin-5-ylmethyl)-pyrimidin-2-yl]-amine] | ≤ 10 | ≤ 10 | ≤ 10
16 | CCc1ccc(CNc2ncc(Cc3c[nH]c4ncncc34)cn2)nc1 [P-0033, (5-Ethyl-pyridin-2-ylmethyl)-[5-(7H-pyrrolo[2,3-d]pyrimidin-5-ylmethyl)-pyrimidin-2-yl]-amine] | ≤ 10 | ≤ 10 | ≤ 10
17 | Cc1cnccc1CNc1ncc(Cc2c[nH]c3ncncc23)cn1 [P-0034, (3-Methyl-pyridin-4-ylmethyl)-[5-(7H-pyrrolo[2,3-d]pyrimidin-5-ylmethyl)-pyrimidin-2-yl]-amine] | – | – | ≤ 10
18 | Cc1cc(CNc2ncc(Cc3c[nH]c4ncncc34)cn2)ccn1 [P-0035, (2-Methyl-pyridin-4-ylmethyl)-[5-(7H-pyrrolo[2,3-d]pyrimidin-5-ylmethyl)-pyrimidin-2-yl]-amine] | – | – | ≤ 10
19 | c1cc(CNc2ncc(Cc3c[nH]c4ncncc34)cn2)cc(N2CCOCC2)n1 [P-0036, (2-Morpholin-4-yl-pyridin-4-ylmethyl)-[5-(7H-pyrrolo[2,3-d]pyrimidin-5-ylmethyl)-pyrimidin-2-yl]-amine] | ≤ 10 | ≤ 10 | ≤ 10
20 | CNc1ncc(CNc2ccc(Cc3c[nH]c4ncncc34)c(F)n2)cn1 [P-0042, (5-{[6-Fluoro-5-(7H-pyrrolo[2,3-d]pyrimidin-5-ylmethyl)-pyridin-2-ylamino]-methyl}-pyrimidin-2-yl)-methyl-amine] | – | – | ≤ 10
21 | Fc1nc(NCc2ccncc2Br)ccc1Cc1c[nH]c2ncncc12 [P-0046, (3-Bromo-pyridin-4-ylmethyl)-[6-fluoro-5-(7H-pyrrolo[2,3-d]pyrimidin-5-ylmethyl)-pyridin-2-yl]-amine] | ≤ 10 | – | ≤ 10
22 | Fc1nc(NCc2ccncc2Cl)ccc1Cc1c[nH]c2ncncc12 [P-0047, (3-Chloro-pyridin-4-ylmethyl)-[6-fluoro-5-(7H-pyrrolo[2,3-d]pyrimidin-5-ylmethyl)-pyridin-2-yl]-amine] | ≤ 10 | – | ≤ 10
23 | Cc1ncc(CNc2ccc(Cc3c[nH]c4ncncc34)c(F)n2)cn1 [P-0048, [6-Fluoro-5-(7H-pyrrolo[2,3-d]pyrimidin-5-ylmethyl)-pyridin-2-yl]-(2-methyl-pyrimidin-5-ylmethyl)-amine] | – | – | ≤ 10

Continued, values first:

Row | IC50 (Kdr) [µM] | IC50 (Kit) [µM] | IC50 (Fms) [µM] | Structure (SMILES)
24 | – | – | ≤ 10 | Fc1cnccc1CNc1ccc(Cc2c[nH]c3ncncc23)c(F)n1 [P-0049, (3-Fluoro-pyridin-4-ylmethyl)-[6-fluoro-5-(7H-pyrrolo[2,3-d]pyrimidin-5-ylmethyl)-pyridin-2-yl]-amine]
25 | – | – | ≤ 10 | Cc1cnccc1CNc1ccc(Cc2c[nH]c3ncncc23)c(F)n1 [P-0055, [6-Fluoro-5-(7H-pyrrolo[2,3-d]pyrimidin-5-ylmethyl)-pyridin-2-yl]-(3-methyl-pyridin-4-ylmethyl)-amine]
26 | – | – | ≤ 10 | COc1ccncc1CNc1ccc(Cc2c[nH]c3ncncc23)c(F)n1 [P-0056, [6-Fluoro-5-(7H-pyrrolo[2,3-d]pyrimidin-5-ylmethyl)-pyridin-2-yl]-(4-methoxy-pyridin-3-ylmethyl)-amine]
27 | ≤ 10 | – | ≤ 10 | Cc1ccnc(CNc2ccc(Cc3c[nH]c4ncncc34)c(F)n2)c1 [P-0058, [6-Fluoro-5-(7H-pyrrolo[2,3-d]pyrimidin-5-ylmethyl)-pyridin-2-yl]-(4-methyl-pyridin-2-ylmethyl)-amine]
28 | ≤ 10 | – | ≤ 10 | Fc1nc(NCc2ccnc(N3CCCC3)c2)ccc1Cc1c[nH]c2ncncc12 [P-0059, [6-Fluoro-5-(7H-pyrrolo[2,3-d]pyrimidin-5-ylmethyl)-pyridin-2-yl]-(2-pyrrolidin-1-yl-pyridin-4-ylmethyl)-amine]
29 | ≤ 10 | – | ≤ 10 | CNc1ncccc1CNc1ccc(Cc2c[nH]c3ncncc23)c(F)n1 [P-0066, [6-Fluoro-5-(7H-pyrrolo[2,3-d]pyrimidin-5-ylmethyl)-pyridin-2-yl]-(2-methylamino-pyridin-3-ylmethyl)-amine]
30 | ≤ 10 | – | ≤ 10 | Fc1ncccc1CNc1ccc(Cc2c[nH]c3ncncc23)c(F)n1 [P-0068, (2-Fluoro-pyridin-3-ylmethyl)-[6-fluoro-5-(7H-pyrrolo[2,3-d]pyrimidin-5-ylmethyl)-pyridin-2-yl]-amine]
31 | ≤ 10 | – | ≤ 10 | Fc1cc(CNc2ccc(Cc3c[nH]c4ncncc34)c(F)n2)ccn1 [P-0074, (2-Fluoro-pyridin-4-ylmethyl)-[6-fluoro-5-(7H-pyrrolo[2,3-d]pyrimidin-5-ylmethyl)-pyridin-2-yl]-amine]
32 | – | – | ≤ 10 | COCCc1ncc(CNc2ccc(Cc3c[nH]c4ncncc34)c(F)n2)cn1 [P-0080, [6-Fluoro-5-(7H-pyrrolo[2,3-d]pyrimidin-5-ylmethyl)-pyridin-2-yl]-[2-(2-methoxy-ethyl)-pyrimidin-5-ylmethyl]-amine]
33 | ≤ 10 | ≤ 10 | ≤ 10 | COc1cc(F)cc(CNc2ccc(Cc3c[nH]c4ncncc34)c(F)n2)c1 [P-0083, (3-Fluoro-5-methoxy-benzyl)-[6-fluoro-5-(7H-pyrrolo[2,3-d]pyrimidin-5-ylmethyl)-pyridin-2-yl]-amine]
34 | – | ≤ 10 | ≤ 10 | COc1ncccc1CNc1ncc(Cc2c[nH]c3ncncc23)cn1 [P-0084, (2-Methoxy-pyridin-3-ylmethyl)-[5-(7H-pyrrolo[2,3-d]pyrimidin-5-ylmethyl)-pyrimidin-2-yl]-amine]
